Assay in all cases: relative viability (nuclei count vs DMSO), 5 days (fraction); higher = more cells survive
Compound in the test “GSK-J4 + Lapatinib”: CCOC(=O)CCNc1cc(N2CCc3ccccc3CC2)nc(-c2ccccn2)n1 [GSK-J4] + CS(=O)(=O)CCNCc1ccc(-c2ccc3ncnc(Nc4ccc(OCc5cccc(F)c5)c(Cl)c4)c3c2)o1 [Lapatinib] (partner 2 µM)
An outline of the steps: (§1)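 Medians of duplicate plates are given as relative viability. That measure is the nuclei count in treated wells divided by the count in vehicle wells. Counts were taken on 4× images of lung cancer cell lines in 1536-well plates, 5 days after pin-tool dosing the day after seeding with one drug alone or a fixed anchor-drug dose plus five library-drug doses (not always all listed) in √10 steps.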

Compound in the test “AZ3146 + Tozasertib”: CN1CCC(CC1)OC2=CC(=C(C=C2)NC3=NC=C4C(=N3)N(C(=O)N4C)C5CCCC5)OC [AZ3146] + Cc1cc(Nc2cc(N3CCN(C)CC3)nc(Sc3ccc(NC(=O)C4CC4)cc3)n2)n[nH]1 [Tozasertib] (partner 0.1 µM)
In a few lines: as §1

Compound in the test “GSK-J4 + Linsitinib”: CCOC(=O)CCNc1cc(N2CCc3ccccc3CC2)nc(-c2ccccn2)n1 [GSK-J4] + C[C@]1(O)C[C@@H](c2nc(-c3ccc4ccc(-c5ccccc5)nc4c3)c3c(N)nccn32)C1 [Linsitinib] (partner 1 µM)
An outline of the steps: as §1

Compound in the test “AZ3146 + Decitabine”: CN1CCC(CC1)OC2=CC(=C(C=C2)NC3=NC=C4C(=N3)N(C(=O)N4C)C5CCCC5)OC [AZ3146] + Nc1ncn([C@H]2C[C@H](O)[C@@H](CO)O2)c(=O)n1 [Decitabine] (partner 2 µM)
In a few lines: as §1

In the supplement of paper PMC10307832 one finds relative viability data, which are given here for 1 cell line.

Take UMC-11: the relative viability was determined as 1.07 in the test with GSK-J4 + Lapatinib (first compound 0.5 µM); 0.465 in the test with GSK-J4 + Lapatinib (first compound 1.581 µM); 0.611 with GSK-J4 + Lapatinib (first compound 5 µM); 1.06 with GSK-J4 + Lapatinib (first compound 15.81 µM); 0.808 with GSK-J4 + Lapatinib (first compound 50 µM); 0.177 with AZ3146 + Tozasertib (first compound 0.08 µM). The relative viability in the test with AZ3146 + Tozasertib (first compound 0.253 µM) turned out to be 0.199; with AZ3146 + Tozasertib (first compound 0.8 µM), 0.204; with AZ3146 + Tozasertib (first compound 2.53 µM), 0.177; with AZ3146 + Tozasertib (first compound 8 µM), 0.183; with GSK-J4 + Linsitinib (first compound 0.5 µM), 0.97; with GSK-J4 + Linsitinib (first compound 1.581 µM) it was 0.967. Further, the relative viability with GSK-J4 + Linsitinib (first compound 5 µM) was 1.02; with GSK-J4 + Linsitinib (first compound 15.81 µM), 0.983; with GSK-J4 + Linsitinib (first compound 50 µM), 0.572; with AZ3146 + Decitabine (first compound 0.08 µM) it was 0.435; with AZ3146 + Decitabine (first compound 0.253 µM), 0.558; in the test with AZ3146 + Decitabine (first compound 0.8 µM), 0.454. For the same cell line, the values for the relative viability with AZ3146 + Decitabine (first compound 2.53 µM) and with AZ3146 + Decitabine (first compound 8 µM) were 0.579 and 0.385, respectively.
